# How the values were obtained:
# Assay type in all cases: in vivo, mice
# BC52 breast cancer PDX = assay: Tumor growth rate in BC52 patient-derived xenograft treated by DPT-C9h
# Experimental: (§1) Breast-cancer patient xenografts (PDXs) were obtained by direct implant of patient tumor fragments in immunocompromised mice. (Arrouss Et al, PlosOne. 2013. 8, e60816).
# (§2) Nine models treated by DPT-C9h (5 mg/kg/d IP, 5 days weekly, 4 to 6 weeks) were selected for the study, i.e. 7 breast cancer PDXs (BC11, BC52, BC143, BC146, BC173, BC227, and BC256), and 2 ovarian cancer PDXs (OV14 and OVM33). Three tumors of both control and treated groups were collected at the end of therapy, except for the BC146 for which 2 control tumors and 3 treated tumors were obtained. For each collected tumor, tumor volume was estimated according to the following formulae: V=a×b2/2, where a and b are the largest and the smallest perpendicular tumor diameters.
# (§3) In a second time, a median TGR was defined for the control and treated groups of each PDX model. Finally, a ratio was calculated for each PDX model, as: median TGR of the treated group/median TGR of the corresponding control group. The inventors considered that a model was responder to DPT-C9h if the ratio was ≤0.5 (p<0.05), and resistant if the ratio was ≥0.8. In this, 3 models were considered as responder (BC52, BC173 and OV14), 4 as resistant (BC11, BC146, BC227, and BC256), and 2 remained undefined and were excluded from analyses (BC143 and OVM33) (Table 1).
# BC227 breast cancer PDX = assay: Tumor growth rate in BC227 patient-derived xenograft treated by DPT-C9h
# Experimental: as §1, §2, §3
# OVM33 ovarian cancer PDX = assay: Tumor growth rate in OVM33 patient-derived xenograft treated by DPT-C9h
# Experimental: as §2, §3
# BC143 breast cancer PDX = assay: Tumor growth rate in BC143 patient-derived xenograft treated by DPT-C9h
# Experimental: as §1, §2, §3
# BC173 breast cancer PDX = assay: Tumor growth rate in BC173 patient-derived xenograft treated by DPT-C9h
# Experimental: as §1, §2, §3
# BC146 breast cancer PDX = assay: Tumor growth rate in BC146 patient-derived xenograft treated by DPT-C9h
# Experimental: as §1, §2, §3
# OV14 ovarian cancer PDX = assay: Tumor growth rate in OV14 patient-derived xenograft treated by DPT-C9h
# Experimental: as §2, §3
# BC11 breast cancer PDX = assay: Tumor growth rate in BC11 patient-derived xenograft treated by DPT-C9h
# Experimental: as §1, §2, §3
# BC256 breast cancer PDX = assay: Tumor growth rate in BC256 patient-derived xenograft treated by DPT-C9h
# Experimental: as §1, §2, §3
# [1] = TGR of treated group / TGR of control group
# [2] = TGR=Vf/V1, 5 mg/kg/d IP, 5 days weekly, 4 to 6 weeks, end of therapy
# [3] = responder if ratio ≤0.5 (p<0.05), resistant if ratio ≥0.8
substance,measurement,setting,value
VKKKKIKREIKI-YVETLDGIFEQWAHSEDL (VKKKKIKREIKIYVETLDGIFEQWAHSEDL; chimeric peptide) [DPT-C9h],Ratio TGR,BC52 breast cancer PDX; [1],0.38
same,Mean TGR DPT,BC52 breast cancer PDX; [2],15.3
same,conclusion (responder / resistant),BC52 breast cancer PDX; class from ratio TGR,+ (+: responder)
same,model response to DPT-C9h (in words),BC52 breast cancer PDX; [3],responder
same,Ratio TGR,BC227 breast cancer PDX; [1],1.38
same,Mean TGR DPT,BC227 breast cancer PDX; [2],6.0
same,conclusion (responder / resistant),BC227 breast cancer PDX; class from ratio TGR,− (−: resistant)
same,model response to DPT-C9h (in words),BC227 breast cancer PDX; [3],resistant
same,Ratio TGR,OVM33 ovarian cancer PDX; [1],0.65
same,Mean TGR DPT,OVM33 ovarian cancer PDX; [2],35.0
same,conclusion (responder / resistant),OVM33 ovarian cancer PDX; class from ratio TGR,ND (ND: unidentified)
same,model response to DPT-C9h (in words),OVM33 ovarian cancer PDX; [3],undefined
same,Ratio TGR,BC143 breast cancer PDX; [1],0.68
same,Mean TGR DPT,BC143 breast cancer PDX; [2],27.7
same,conclusion (responder / resistant),BC143 breast cancer PDX; class from ratio TGR,ND (ND: unidentified)
same,model response to DPT-C9h (in words),BC143 breast cancer PDX; [3],undefined
same,Ratio TGR,BC173 breast cancer PDX; [1],0.45
same,Mean TGR DPT,BC173 breast cancer PDX; [2],6.0
same,conclusion (responder / resistant),BC173 breast cancer PDX; class from ratio TGR,+ (+: responder)
same,model response to DPT-C9h (in words),BC173 breast cancer PDX; [3],responder
same,Ratio TGR,BC146 breast cancer PDX; [1],0.96
same,Mean TGR DPT,BC146 breast cancer PDX; [2],34.7
same,conclusion (responder / resistant),BC146 breast cancer PDX; class from ratio TGR,− (−: resistant)
same,model response to DPT-C9h (in words),BC146 breast cancer PDX; [3],resistant
same,Ratio TGR,OV14 ovarian cancer PDX; [1],0.44
same,Mean TGR DPT,OV14 ovarian cancer PDX; [2],10.7
same,conclusion (responder / resistant),OV14 ovarian cancer PDX; class from ratio TGR,+ (+: responder)
same,model response to DPT-C9h (in words),OV14 ovarian cancer PDX; [3],responder
same,Ratio TGR,BC11 breast cancer PDX; [1],0.90
same,Mean TGR DPT,BC11 breast cancer PDX; [2],24.3
same,conclusion (responder / resistant),BC11 breast cancer PDX; class from ratio TGR,− (−: resistant)
same,model response to DPT-C9h (in words),BC11 breast cancer PDX; [3],resistant
same,Ratio TGR,BC256 breast cancer PDX; [1],1.23
same,Mean TGR DPT,BC256 breast cancer PDX; [2],38.7
same,conclusion (responder / resistant),BC256 breast cancer PDX; class from ratio TGR,− (−: resistant)
same,model response to DPT-C9h (in words),BC256 breast cancer PDX; [3],resistant
